From PMC6624652, “Compound Discovery and Structure-Activity Relationship Study of Neoantimycins Against Drug-Resistant Cancer Cells” (Frontiers in Chemistry, 2019)
Like-named read-outs stand apart in the source and are kept apart here.

What was measured:
[1] = test system: human gastric cancer cell line SGC7901; assay: WST-8 (CCK-8) in vitro cytotoxicity test, SGC7901; type: cell-based; conditions: read-out: IC50, SGC7901
Experimental: (§1) A WST-8 colorimetric assay (Cell Counting Kit-8, Dojindo) was used to determine the cytotoxicity of the obtained compounds against four human cancer cell lines (human gastric cancer cell line SGC7901, cisplatin-resistant human gastric cancer cell line SGC7901/DDP, human colon cancer cell line HCT-8, and taxol-resistant human colon cancer cell line HCT-8/T) and noncancerous NCM460 colon cell line. Each cell line (100 μL, 5 × 10^4 cells/mL) was inoculated into standard 96-well, flat-bottom microplates, and incubated with DMEM (for HCT-8 and NCM460) or RPMI-1640 (for HCT-8/T, SGC7901, and SGC7901/DDP) medium for 24 h at 37°C in a humidified atmosphere containing 5% CO2. The attached cells were then incubated with serially diluted NATs (1-8). After continuous exposure to the compounds for 72 h, 10 μL CCK-8 solution was added. After 3 h of incubation at 37°C (5% CO2), the absorbance was measured at 450 nm using a microtiter plate reader (SpectraMax 190, Molecular Devices). Cisplatin and taxol (purity ≥ 98% Sigma, USA) were used as positive controls. All studies were performed in triplicate and the IC50 values were calculated using Prism software.

[2] = test system: cisplatin-resistant human gastric cancer cell line SGC7901/DDP; assay: WST-8 (CCK-8) in vitro cytotoxicity test, SGC7901/DDP; type: cell-based; conditions: read-out: IC50, SGC7901/DDP
Experimental: as §1

[3] = test system: human colon cancer cell line HCT-8; assay: WST-8 (CCK-8) in vitro cytotoxicity test, HCT-8; type: cell-based; conditions: read-out: IC50, HCT-8
Experimental: as §1

[4] = test system: taxol-resistant human colon cancer cell line HCT-8/T; assay: WST-8 (CCK-8) in vitro cytotoxicity test, HCT-8/T; type: cell-based; conditions: read-out: IC50, HCT-8/T
Experimental: as §1

[5] = test system: noncancerous NCM460 colon cell line; assay: WST-8 (CCK-8) in vitro cytotoxicity test, NCM460; type: cell-based; conditions: Homo sapiens, read-out: IC50, NCM460
Experimental: as §1

[6] = test system: SGC7901, SGC7901/DDP, HCT-8 and HCT-8/T cell lines; assay: Cytotoxicity summarised over all four cancer cell lines; type: cell-based, human; conditions: for IC50: Homo sapiens, read-out: anti-proliferative activity (IC50 span) against all four cell lines; for fold better anti-proliferative activity in drug-resistant cell lines than in sensitive ones: span over compounds 3, 4, 7, 8; for fold higher activity than corresponding oxidized forms (3 and 4): in vitro, span over four cell lines
Experimental: as §1

HT-29 cell line = test system: HT-29 cell line; set-up: method as in Li et al., 2013; conditions: ref Li et al., 2013; cited from earlier work
HCT-8 cells [7] = assay: Apoptosis analysis by flow cytometry (Annexin V-FITC/PI); type: cell-based, human; conditions: NAT-A 0.5 μM, 72 h, untreated 7.2 ± 1.1%
Experimental: An Annexin V-FITC/PI Apoptosis Detection kit I (BD Pharmingen, San Diego, CA, USA) was adopted to examine the cell apoptosis according to the manufacturer's instructions. HCT-8 cells were cultured on a six-well plate (3 × 10^5 cells/well) and allowed to attach for 24 h before treated with NAT-A (0 and 0.5 μM) for 72 h. Then cells were harvested, washed with PBS and resuspended in 1 × binding buffer. Cell suspension (100 μL) was incubated with 5 μL FITC Annexin-V and 5 μL propidium iodide (PI) for 15 min in the dark. Following the incubation, 400 μL 1 × binding buffer was added into each sample before analysis using flow cytometry (Thermo Fisher Scientific, Eugene, Oregon, USA). The lower left section of fluorocytogram (Annexin V-, PI-) represents the normal cells, lower right section of fluorocytogram (Annexin V+, PI-) represents early apoptosis cells, and upper right section of fluorocytogram (Annexin V+, PI+) represents late apoptosis cells.

HCT-8 cells [8] = assay: Cell morphology, DAPI staining; type: cell-based, human; conditions: 72 h
Experimental: HCT-8 cells were seeded in 12-well plates at a density of 1 × 10^5 cells per well. After overnight adherence, they were exposed to the indicated concentration of NAT-A for 72 h. After that, the cells were washed with PBS and fixed 4% paraformaldehyde for 30 min at room temperature. After washing with PBS, the cells were stained with DAPI (100 ng/mL) for 15 min in the dark and photographed using a fluorescence microscope (Nikon, Japan).

GRP78 = test system: GRP78; set-up: method as in Izumikawa et al., 2007; conditions: ref Izumikawa et al., 2007; cited from earlier work
K562 cells = test system: K562 cells; set-up: method as in Takahashi et al., 2001; conditions: ref Takahashi et al., 2001; cited from earlier work
KB cells = test system: KB cells; set-up: method as in Takahashi et al., 2001; conditions: ref Takahashi et al., 2001; cited from earlier work
[9] = Homo sapiens, HCT-8, 72 h exposure, CCK-8, mean ± SD, n = 3
[10] = Homo sapiens, HCT-8, taxol-resistant, 72 h exposure, CCK-8, mean ± SD, n = 3
[11] = 72 h exposure, CCK-8, mean ± SD, n = 3

| Structure (SMILES) | IC50 ([1]; Homo sapiens, SGC-7901, 72 h) [nM] | IC50 ([2]; Homo sapiens, SGC-7901, 72 h) [nM] | IC50 ([3]; Homo sapiens, HCT-8, 72 h) [nM] | IC50 ([4]; Homo sapiens, HCT-8, 72 h) [nM] | fold better anti-proliferative activity in drug-resistant cell lines than in sensitive ones [6] | also measured |
| --- | --- | --- | --- | --- | --- | --- |
| CC[C@H](C)[C@@H]1OC(=O)C(C)(C)C(=O)[C@@H](Cc2ccccc2)OC(=O)[C@H](C(C)C)OC(=O)[C@@H](NC(=O)c2cccc(N)c2O)[C@@H](C)OC1=O [Compound 1, Neoantimycin J] | > 20000 | > 20000 | > 20000 | > 20000 | – | – |
| CC(C)[C@@H]1OC(=O)[C@@H](NC(=O)c2cccc(N)c2O)[C@@H](C)OC(=O)[C@H](C(C)C)OC(=O)C(C)(C)C(=O)[C@@H](Cc2ccccc2)OC1=O [Compound 2, Neoantimycin K] | > 20000 | > 20000 | > 20000 | > 20000 | – | – |
| CC[C@H](C)[C@@H]1OC(=O)C(C)(C)C(=O)[C@@H](Cc2ccccc2)OC(=O)[C@H](C(C)C)OC(=O)[C@@H](NC(=O)c2cccc(NC=O)c2O)[C@@H](C)OC1=O [Compound 3, Neoantimycin H] | 104 ± 22.7 | 12.2 ± 4.6 | 523 ± 104 | 26.6 ± 1.5 | 5.2~33.5 fold | IC50 ([5]; NCM460, 72 h): 115 ± 18.7 nM; IC50 [6]: 1.5 to 523 nM |
| CC(C)[C@@H]1OC(=O)[C@@H](NC(=O)c2cccc(NC=O)c2O)[C@@H](C)OC(=O)[C@H](C(C)C)OC(=O)C(C)(C)C(=O)[C@@H](Cc2ccccc2)OC1=O [Compound 4, Neoantimycin I] | 179 ± 18.3 | 15.7 ± 1.6 | 233 ± 20.1 | 32.6 ± 4.2 | 5.2~33.5 fold | IC50 ([5]; NCM460, 72 h): > 50000 nM; IC50 [6]: 1.5 to 523 nM |
| CC[C@H](C)[C@@H]1OC(=O)C(C)(C)[C@@H](O)[C@@H](Cc2ccccc2)OC(=O)[C@H](C(C)C)OC(=O)[C@@H](NC(=O)c2cccc(N)c2O)[C@@H](C)OC1=O [Compound 5, Neoantimycin D] | 10200 | > 20000 | > 20000 | > 20000 | – | antiproliferative activity against HT-29 cell line (HT-29 cell line): hardly had any significant antiproliferative activity; cytotoxic activity (cell line not named at b4) (HT-29 cell line): did not show any cytotoxic activity |
| CC(C)[C@@H]1OC(=O)[C@@H](NC(=O)c2cccc(N)c2O)[C@@H](C)OC(=O)[C@H](C(C)C)OC(=O)C(C)(C)[C@@H](O)[C@@H](Cc2ccccc2)OC1=O [Compound 6, Neoantimycin E] | 1770 | > 20000 | 13100 | > 20000 | – | antiproliferative activity against HT-29 cell line (HT-29 cell line): hardly had any significant antiproliferative activity |
| CC[C@H](C)[C@@H]1OC(=O)C(C)(C)[C@@H](O)[C@@H](Cc2ccccc2)OC(=O)[C@H](C(C)C)OC(=O)[C@@H](NC(=O)c2cccc(NC=O)c2O)[C@@H](C)OC1=O [Compound 7, Neoantimycin A] | – | – | – | – | 5.2~33.5 fold | IC50 ([1]; Homo sapiens, SGC-7901, 72 h exposure, CCK-8, mean ± SD, n = 3): 24.5 ± 3.3 nM; IC50 ([2]; Homo sapiens, SGC-7901, cisplatin-resistant, 72 h exposure, CCK-8, mean ± SD, n = 3): 1.5 ± 0.1 nM; IC50 [3, 9]: 66.9 ± 5.7 nM; IC50 [4, 10]: 2 ± 0.1 nM; IC50 ([5]; NCM460, noncancerous colon cell, 72 h exposure, CCK-8, mean ± SD, n = 3): > 50000 nM; percentage of apoptotic cells (Annexin V/PI) (HCT-8 cells [7]): 25.9 ± 0.7%; nuclear morphology after DAPI staining (HCT-8 cells [8]): nuclear shrinkage, DNA fragments as well as chromatin condensation; IC50 ([6]; span over compounds 3, 4, 7, 8 and four cell lines): 1.5 to 523 nM; fold higher activity than corresponding oxidized forms (3 and 4) [6]: 1.2~13 fold |
| CC(C)[C@@H]1OC(=O)[C@@H](NC(=O)c2cccc(NC=O)c2O)[C@@H](C)OC(=O)[C@H](C(C)C)OC(=O)C(C)(C)[C@@H](O)[C@@H](Cc2ccccc2)OC1=O [Compound 8, Neoantimycin F] | 98.5 ± 32.6 | 6.4 ± 0.5 | 136 ± 18.2 | 26.1 ± 0.1 | 5.2~33.5 fold | IC50 ([5]; NCM460, 72 h): > 50000 nM; IC50 [6]: 1.5 to 523 nM; fold higher activity than corresponding oxidized forms (3 and 4) [6]: 1.2~13 fold; antiproliferative activity against HT-29 cell line (HT-29 cell line): hardly had any significant antiproliferative activity |
| CC[C@H](C)[C@@H]1OC(=O)C(C)(C)[C@@H](O)[C@@H](Cc2ccccc2)OC(=O)[C@H](C)OC(=O)[C@@H](NC(=O)c2cccc(N)c2O)[C@H](C)OC1=O [JBIR-05] | – | – | – | – | – | expression of GRP78 (GRP78): inhibited the expression of GRP78 |
| CCC(C)C1OC(=O)C(C)(C)C(O)C(Cc2ccccc2)OC(=O)C(C)OC(=O)C(NC(=O)c2cccc(NC=O)c2O)C(C)OC1=O (stereo not shown) [SW-163 A] | – | – | – | – | – | cytotoxicity against K562 cells (K562 cells): no cytotoxicity; cytotoxicity against KB cells (KB cells): no cytotoxicity |
| N.N.[Cl][Pt][Cl] [cisplatin, reference compound] | – | – | – | – | – | IC50 [1, 11]: 2560 nM; IC50 ([2]; cisplatin-resistant, 72 h exposure, CCK-8, mean ± SD, n = 3): 5670 nM; IC50 [3, 11]: 9490 nM; IC50 ([4]; taxol-resistant, 72 h exposure, CCK-8, mean ± SD, n = 3): > 20000 nM |
| CC(=O)O[C@H]1C(=O)[C@@]2(C)[C@H]([C@H](OC(=O)c3ccccc3)[C@]3(O)C[C@H](OC(=O)[C@H](O)[C@@H](NC(=O)c4ccccc4)c4ccccc4)C(C)=C1C3(C)C)[C@]1(OC(C)=O)CO[C@@H]1C[C@@H]2O [taxol, reference compound] | – | – | – | – | – | IC50 [3, 9]: 2520 nM; IC50 [4, 10]: > 20000 nM |
